Measured values as given in ChEMBL document CHEMBL1121855, “Potential salicylamide antiplaque agents: in vitro antibacterial activity against Actinomyces viscosus” (J Med Chem, 1981).
Values after ≈ are worked out from the molar mass of the structure shown. Each block holds one compound with its values, some of them ahead of it.

Experiments:
Actinomyces israelii [1] = assay: In vitro antibacterial activity against Actinomycetes israelii 28360; format: functional
Actinomyces viscosus [2] = assay: In vitro antibacterial activity against Actinomyces viscosus M-100-2000; format: functional
Actinomyces viscosus [3] = assay: In vitro antibacterial activity against Actinomycetes viscosus T14V; format: functional
Actinomyces israelii [4] = assay: In vitro antibacterial activity against Actinomycetes israelii 12836; format: functional
Actinomyces israelii [5] = assay: In vitro antibacterial activity against Actinomycetes israelii 10048; format: functional
Actinomyces naeslundii [6] = assay: In vitro antibacterial activity against Actinomycetes naeslundii 8115; format: functional
Actinomyces naeslundii [7] = assay: In vitro antibacterial activity against Actinomycetes naeslundii 12104; format: functional
[8] = Dissociation constant is the negative logarithm of the equilibrium coefficient of the neutral and charged forms of the compound; format: physicochemical
[9] = Partition coefficient is determined in octanol/buffer solution; format: physicochemical; conditions: octanol/buffer; read-out: logP
[10] = Distribution coefficient between octanol and aqueous phase at pH7.2; format: physicochemical; conditions: pH 7.2
[11] = Observed inhibitory activity against various Actinomycetes strains; conditions: actinomycetaceae

- MIC (Actinomyces viscosus [2]): 0.5 µg/mL (≈ 1.11 µM)
SMILES: CCCCCCCCCC(=O)c1ccc(O)c(C(=O)NCc2ccc(Cl)c(Cl)c2)c1

- MIC (Actinomyces viscosus [2]): 4 µg/mL (≈ 9.54 µM)
SMILES: O=C(NCc1ccc(Cl)cc1)c1cc(Br)cc(Br)c1O

- MIC (Actinomyces viscosus [2]): > 35 µg/mL
SMILES: O=C(Nc1nc2cc(Cl)ccc2o1)c1cc(Br)cc(Br)c1O

- MIC (Actinomyces viscosus [2]): > 20 µg/mL
SMILES: CCCCCCc1ccc(O)c(C(=O)NCc2ccc(C)c([N+](=O)[O-])c2)c1

- MIC (Actinomyces viscosus [2]): 4 µg/mL (≈ 8.98 µM)
SMILES: O=C(Nc1nc2cc(Cl)ccc2[nH]1)c1cc(Br)cc(Br)c1O

- MIC (Actinomyces viscosus [2]): 1.7 µg/mL (≈ 3.68 µM)
SMILES: O=C(Nc1nc2c(Cl)cccc2s1)c1cc(Br)cc(Br)c1O

- MIC (Actinomyces viscosus [2]): 100 µg/mL (≈ 254 µM)
SMILES: Cc1nnc(NC(=O)c2cc(Br)cc(Br)c2O)s1

- MIC (Actinomyces viscosus [2]): > 20 µg/mL
SMILES: O=C(NCCCCCCNC(=O)c1cc(Br)ccc1O)c1cc(Br)ccc1O

- MIC (Actinomyces viscosus [2]): 10 µg/mL (≈ 28.9 µM)
SMILES: CCCCCCc1ccc(O)c(C(=O)NCc2ccc(Cl)cc2)c1

- pKa [8]: 5.6
- logP [9]: 5.06
- MIC (Actinomyces viscosus [2]): 45 µg/mL (≈ 128 µM)
- logD [10]: 3.46
- Log 1/MIC [11]: 3.94
SMILES: Cc1cc(C(=O)Nc2ccc(Br)cc2)c(O)c([N+](=O)[O-])c1

The next lines start with the compound.

SMILES: CCCCCCCCCC(=O)c1ccc(O)c(C(=O)Nc2nc3ccccc3s2)c1
- MIC (Actinomyces israelii [1]): > 10 µg/mL
- MIC (Actinomyces viscosus [2]): 0.5 µg/mL (≈ 1.18 µM)
- MIC (Actinomyces viscosus [3]): 10 µg/mL (≈ 23.6 µM)
- MIC (Actinomyces israelii [4]): > 10 µg/mL
- MIC (Actinomyces israelii [5]): 5 µg/mL (≈ 11.8 µM)
- MIC (Actinomyces naeslundii [6]): > 10 µg/mL
- MIC (Actinomyces naeslundii [7]): > 10 µg/mL

SMILES: COc1ccc(NC(=O)c2cc(C)ccc2O)cc1
- MIC (Actinomyces viscosus [2]): > 40 µg/mL

SMILES: CCCCCCCCCCCC(=O)c1ccc(O)c(C(=O)Nc2ccc([N+](=O)[O-])cc2)c1
- MIC (Actinomyces viscosus [2]): 0.05 µg/mL (≈ 0.113 µM)

SMILES: CCCCCCCCc1ccc(O)c(C(=O)Nc2ccc(Br)cc2)c1
- MIC (Actinomyces viscosus [2]): 0.2 µg/mL (≈ 0.495 µM)

SMILES: Cc1ccc(O)c(C(=O)Nc2ccc([N+](=O)[O-])cc2)c1
- MIC (Actinomyces viscosus [2]): 5 µg/mL (≈ 18.4 µM)

SMILES: CCCCCCCC(=O)c1ccc(O)c(C(=O)Nc2ccc([N+](=O)[O-])cc2)c1
- MIC (Actinomyces viscosus [2]): 0.1 µg/mL (≈ 0.26 µM)

SMILES: CCCCCCCCCC(=O)c1ccc(O)c(C(=O)Nc2ccc(Br)cc2)c1
- pKa [8]: 6.1
- logP [9]: 8.02
- MIC (Actinomyces viscosus [2]): 0.06 µg/mL (≈ 0.134 µM)
- logD [10]: 6.88
- Log 1/MIC [11]: 6.87

SMILES: O=C(Nc1ccc(Br)cc1)c1cc([N+](=O)[O-])ccc1O
- pKa [8]: 5.8
- logP [9]: 4.58
- MIC (Actinomyces viscosus [2]): 3 µg/mL (≈ 8.9 µM)
- logD [10]: 3.16
- Log 1/MIC [11]: 5.05

SMILES: CCCCc1ccc(O)c(C(=O)Nc2cccc(C(F)(F)F)c2)c1
- MIC (Actinomyces viscosus [2]): 0.5 µg/mL (≈ 1.48 µM)

SMILES: O=C(Nc1ccc(Br)cc1)c1ccccc1O
- pKa [8]: 7.1
- logP [9]: 4.13
- MIC (Actinomyces viscosus [2]): 10 µg/mL (≈ 34.2 µM)
- logD [10]: 3.78
- Log 1/MIC [11]: 4.47

SMILES: CCC(=O)c1ccc(O)c(C(=O)Nc2ccc(Br)cc2)c1
- pKa [8]: 6.1
- logP [9]: 4.52
- MIC (Actinomyces viscosus [2]): 13 µg/mL (≈ 37.3 µM)
- logD [10]: 3.38
- Log 1/MIC [11]: 4.43

SMILES: CCCCCCc1ccc(O)c(C(=O)NCc2ccc([N+](=O)[O-])cc2)c1
- MIC (Actinomyces israelii [1]): 0.1 µg/mL (≈ 0.281 µM)
- MIC (Actinomyces viscosus [2]): 0.05 µg/mL (≈ 0.14 µM)
- MIC (Actinomyces viscosus [3]): 0.05 µg/mL (≈ 0.14 µM)
- MIC (Actinomyces israelii [4]): 0.1 µg/mL (≈ 0.281 µM)
- MIC (Actinomyces israelii [5]): 0.5 µg/mL (≈ 1.4 µM)
- MIC (Actinomyces naeslundii [6]): 0.05 µg/mL (≈ 0.14 µM)
- MIC (Actinomyces naeslundii [7]): 0.05 µg/mL (≈ 0.14 µM)

SMILES: CCCCCCCC(=O)c1ccc(O)c(C(=O)Nc2cccc(C(F)(F)F)c2)c1
- MIC (Actinomyces viscosus [2]): 0.5 µg/mL (≈ 1.23 µM)

SMILES: CCCCCCCCCCCC(=O)c1ccc(O)c(C(=O)Nc2cccc(C(F)(F)F)c2)c1
- MIC (Actinomyces israelii [1]): 0.1 µg/mL (≈ 0.216 µM)
- MIC (Actinomyces viscosus [2]): 0.5 µg/mL (≈ 1.08 µM)
- MIC (Actinomyces viscosus [3]): 0.1 µg/mL (≈ 0.216 µM)
- MIC (Actinomyces israelii [4]): 0.5 µg/mL (≈ 1.08 µM)
- MIC (Actinomyces israelii [5]): 0.1 µg/mL (≈ 0.216 µM)
- MIC (Actinomyces naeslundii [6]): 0.05 µg/mL (≈ 0.108 µM)
- MIC (Actinomyces naeslundii [7]): 0.1 µg/mL (≈ 0.216 µM)

SMILES: CCCCCCCCCCCC(=O)c1ccc(O)c(C(=O)NCc2ccc(Cl)c(Cl)c2)c1
- MIC (Actinomyces viscosus [2]): 5 µg/mL (≈ 10.5 µM)

SMILES: CCCCCC(=O)c1ccc(O)c(C(=O)Nc2ccc(Br)cc2)c1
- pKa [8]: 6.1
- logP [9]: 6.02
- MIC (Actinomyces viscosus [2]): 1 µg/mL (≈ 2.56 µM)
- logD [10]: 4.88
- Log 1/MIC [11]: 5.6

SMILES: CCCCCCCCCCc1ccc(O)c(C(=O)Nc2ccc(Br)cc2)c1
- MIC (Actinomyces viscosus [2]): 3.25 µg/mL (≈ 7.52 µM)
